The target in the test is T1, recombinant guanylate cyclase reporter cell line (Rattus norvegicus, UniProt P19686+P20595).
T1 construct: expressed in transfected cells
T1 sequence (P19686 1-690): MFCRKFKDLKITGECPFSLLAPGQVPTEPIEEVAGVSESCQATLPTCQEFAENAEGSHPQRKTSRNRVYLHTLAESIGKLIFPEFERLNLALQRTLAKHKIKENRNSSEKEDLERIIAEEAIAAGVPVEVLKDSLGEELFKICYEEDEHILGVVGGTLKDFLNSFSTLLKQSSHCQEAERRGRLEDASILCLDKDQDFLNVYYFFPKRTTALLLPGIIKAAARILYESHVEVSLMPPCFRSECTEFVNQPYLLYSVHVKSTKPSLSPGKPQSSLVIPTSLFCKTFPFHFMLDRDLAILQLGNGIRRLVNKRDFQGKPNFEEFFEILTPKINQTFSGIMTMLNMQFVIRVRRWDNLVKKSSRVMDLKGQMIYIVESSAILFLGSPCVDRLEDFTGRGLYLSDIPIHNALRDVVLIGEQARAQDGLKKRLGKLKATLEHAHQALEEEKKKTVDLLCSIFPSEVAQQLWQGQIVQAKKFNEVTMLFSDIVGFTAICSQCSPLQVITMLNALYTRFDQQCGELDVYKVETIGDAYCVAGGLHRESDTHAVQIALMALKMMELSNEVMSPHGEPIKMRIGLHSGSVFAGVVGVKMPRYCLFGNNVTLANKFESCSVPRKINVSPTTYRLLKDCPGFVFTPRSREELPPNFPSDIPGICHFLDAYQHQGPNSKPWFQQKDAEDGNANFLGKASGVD
T1 sequence (P20595 1-619): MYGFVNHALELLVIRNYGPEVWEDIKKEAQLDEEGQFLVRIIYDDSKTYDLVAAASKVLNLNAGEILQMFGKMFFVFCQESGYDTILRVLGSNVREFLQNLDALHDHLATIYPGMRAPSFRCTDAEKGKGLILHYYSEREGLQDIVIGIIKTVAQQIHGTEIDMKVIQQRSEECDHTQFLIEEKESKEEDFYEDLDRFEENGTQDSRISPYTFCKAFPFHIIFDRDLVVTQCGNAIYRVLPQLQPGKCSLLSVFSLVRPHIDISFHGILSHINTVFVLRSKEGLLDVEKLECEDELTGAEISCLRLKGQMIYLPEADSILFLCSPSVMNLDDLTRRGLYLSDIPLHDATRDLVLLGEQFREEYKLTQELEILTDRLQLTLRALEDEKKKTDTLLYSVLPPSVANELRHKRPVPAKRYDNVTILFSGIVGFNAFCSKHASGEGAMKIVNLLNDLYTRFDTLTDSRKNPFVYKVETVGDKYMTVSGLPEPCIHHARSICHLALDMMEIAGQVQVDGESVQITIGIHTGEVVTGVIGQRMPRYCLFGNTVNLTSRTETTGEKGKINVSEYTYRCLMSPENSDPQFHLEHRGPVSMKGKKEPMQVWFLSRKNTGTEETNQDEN
Kind of test: Effect on a recombinant guanylate cyclase reporter cell line (B-2). The format is cell-based. The following applies: in some cases mean values for individual determinations. As for the experimental part: B-2. Effect on a Recombinant Guanylate Cyclase Reporter Cell Line
The cellular effect of the inventive compounds is determined using a recombinant guanylate cyclase reporter cell line, as described in F. Wunder et al., Anal. Biochem. 339, 104-112 (2005).
Representative MEC values (MEC=minimum effective concentration) for the inventive compounds are shown in the table below (in some cases as mean values for individual determinations): […]

Structures can show the parent of a compound that is named as a salt.

On to `Cc1cc(OCc2c(F)cccc2F)n2nc(C)c(C(=O)NC3c4cccc(F)c4OC3C)c2c1` (centres unmarked) [Example 111, 7-[(2,6-Difluorobenzyl)oxy]-N-(7-fluoro-2-methyl-2,3-dihydro-1-benzofur-3-yl)-2,5-dimethylpyrazolo[1,5-a]pyridine-3-carboxamide], for which the “MEC (minimum effective concentration)” value came to 1.0 µM. The result for `Cc1cc(OCc2c(F)ccc(F)c2F)n2nc(C)c(C(=O)N[C@@H](CO)C(=O)Nc3ccc4ccccc4c3)c2c1` [Example 7, N-[(2S)-3-Hydroxy-1-(2-naphthylamino)-1-oxopropan-2-yl]-2,5-dimethyl-7-[(2,3,6-trifluorobenzyl)oxy]pyrazolo[1,5-a]pyridine-3-carboxamide] reads 1.0 µM; that for `Cc1cc(OCc2c(F)cccc2F)n2nc(C)c(C(=O)NC(CN)c3cccc(Br)c3)c2c1` (racemic) [Example 126, rac-N-[2-Amino-1-(3-bromphenyl)ethyl]-7-[(2,6-difluorobenzyl)oxy]-2,5-dimethylpyrazolo[1,5-a]pyridine-3-carboxamide], 1.0 µM. The result for `COC(=O)C12CC3CC(CC(CNC(=O)c4c(C)nn5c(OCc6c(F)cccc6F)cc(C)cc45)(C3)C1)C2` [Example 155, Methyl 3-{[({7-[(2,6-difluorobenzyl)oxy]-2,5-dimethylpyrazolo[1,5-a]pyridin-3-yl}carbonyl)amino]methyl}adamantane-1-carboxylate] reads 1.0 µM; that for `CSCCC(N)CNC(=O)c1c(C)nn2c(OCc3c(F)cccc3F)cc(C)cc12` (racemic) [Example 156, rac-N-[2-Amino-4-(methylsulphanyl)butyl]-7-[(2,6-difluorobenzyl)oxy]-2,5-dimethylpyrazolo[1,5-a]pyridine-3-carboxamide], 0.3 µM. On to `Cc1cc(OCc2c(F)ccc(F)c2F)n2nc(C)c(C(=O)NC(C)c3nc(C(F)(F)F)no3)c2c1` (racemic) [Example 19, rac-2,5-Dimethyl-7-[(2,3,6-trifluorobenzyl)oxy]-N-{1-[3-(trifluoromethyl)-1,2,4-oxadiazol-5-yl]ethyl}pyrazolo[1,5-a]pyridine-3-carboxamide], for which the “MEC (minimum effective concentration)” value is 0.3 µM. For the compound `Cc1cc(OCc2c(F)cccc2F)n2nc(C)c(C(=O)N[C@@H](CO)c3ccc(C)o3)c2c1` [Example 177, 7-[(2,6-Difluorobenzyl)oxy]-N-[(1S)-2-hydroxy-1-(5-methy1-2-furyl)ethyl]-2,5-dimethylpyrazolo[1,5-a]pyridine-3-carboxamide], the “MEC (minimum effective concentration)” value is 1.0 µM. The result for `COC(=O)[C@H]1CC[C@H](CNC(=O)c2c(C)nn3c(OCc4c(F)cccc4F)cc(C)cc23)CC1` [Example 35, Methyl trans-4-{[({7-[(2,6-difluorobenzyl)oxy]-2,5-dimethylpyrazolo[1,5-a]pyridin-3-yl}carbonyl)amino]methyl}cyclohexanecarboxylate] reads 1.0 µM; that for `CCOC(=O)NCCNC(=O)c1c(C)nn2c(OCc3c(F)cccc3F)cc(C)cc12` [Example 106, Ethyl {2-[({7-[(2,6-difluorobenzyl)oxy]-2,5-dimethylpyrazolo[1,5-a]pyridin-3-yl}carbonyl)amino]ethyl}carbamate], 1.0 µM. The result for `Cc1cc(OCc2c(F)cccc2F)n2nc(C)c(C(=O)NCCS(N)(=O)=O)c2c1` [Example 61, 7-[(2,6-Difluorobenzyl)oxy]-2,5-dimethyl-N-(2-sulphamoylethyl)pyrazolo[1,5-a]pyridine-3-carboxamide] reads 10 µM; that for `CCCC(C)(N)CNC(=O)c1c(C)nn2c(OCc3c(F)cccc3Cl)cc(C)cc12` (racemic) [Example 164], 1.0 µM. The result for `Cc1cc(OCc2c(F)cccc2F)n2nc(C)c(C(=O)NCC(C)(N)CF)c2c1` (single isomer, unassigned) [Example 40, ent-N-(2-Amino-3-fluoro-2-methylpropyl)-7-[(2,6-difluorobenzyl)oxy]-2,5-dimethylpyrazolo[1,5-a]pyridine-3-carboxamide] reads 1.0 µM. For the compound `Cc1cc(OCc2c(F)cccc2F)n2nc(C)c(C(=O)NCC(N)c3csc4ccccc34)c2c1` (racemic) [Example 112, rac-N-[2-Amino-2-(1-benzothiophen-3-yl)ethyl]-7-[(2,6-difluorobenzyl)oxy]-2,5-dimethylpyrazolo[1,5-a]pyridine-3-carboxamide], the “MEC (minimum effective concentration)” value amounted to 10 µM. `Cc1cc(OCc2c(F)cccc2F)n2nc(C)c(C(=O)NCC3CSCCN3)c2c1` (racemic) [Example 88, rac-7-[(2,6-Difluorobenzyl)oxy]-2,5-dimethyl-N-(thiomorpholin-3-ylmethyl)pyrazolo[1,5-a]pyridine-3-carboxamide]: the “MEC (minimum effective concentration)” value was found to be 1.0 µM. The result for `Cc1cc(OCc2c(F)ccc(F)c2F)n2nc(C)c(C(=O)NC3CC3c3ccccc3)c2c1` (racemic) [Example 10, rac-2,5-Dimethyl-N-(2-phenylcyclopropyl)-7-[(2,3,6-trifluorobenzyl)oxy]pyrazolo[1,5-a]pyridine-3-carboxamide] reads 1.0 µM; that for `Cc1cc(OCc2c(F)cccc2F)n2nc(C)c(C(=O)NOCCO)c2c1` [Example 64, 7-[(2,6-Difluorobenzyl)oxy]-N-(2-hydroxyethoxy)-2,5-dimethylpyrazolo[1,5-a]pyridine-3-carboxamide trifluoroacetate], 3.0 µM. The result for `COc1ccc2c(c1)C(NC(=O)c1c(C)nn3c(OCc4c(F)cccc4F)cc(C)cc13)CCN2` (racemic) [Example 102, rac-7-[(2,6-Difluorobenzyl)oxy]-N-(6-methoxy-1,2,3,4-tetrahydroquinolin-4-yl)-2,5-dimethylpyrazolo[1,5-a]pyridine-3-carboxamide] reads 1.0 µM.

As to `COC(=O)[C@@H](N)CCCCNC(=O)c1c(C)nn2c(OCc3c(F)cccc3F)cc(C)cc12` [Example 131, Methyl N^6-({7-[(2,6-difluorobenzyl)oxy]-2,5-dimethylpyrazolo[1,5-a]pyridin-3-yl}carbonyl)-L-lysinate], the “MEC (minimum effective concentration)” value was determined as 3.0 µM. The result for `Cc1cc(OCc2c(F)cccc2F)n2nc(C)c(C(=O)NC3CCCc4ccccc43)c2c1` (racemic) [Example 138, rac-7-[(2,6-Difluorobenzyl)oxy]-2,5-dimethyl-N-(1,2,3,4-tetrahydronaphthalen-1-yl)pyrazolo[1,5-a]pyridine-3-carboxamide] reads 0.1 µM; that for `Cc1cc(OCc2c(F)ccc(F)c2F)n2nc(C)c(C(=O)NCc3ccc(Cl)nc3)c2c1` [Example 21, N-[(6-Chloropyridin-3-yl)methyl]-2,5-dimethyl-7-[(2,3,6-trifluorobenzyl)oxy]pyrazolo[1,5-a]pyridine-3-carboxamide], 0.3 µM. The result for `Cc1cc(OCc2c(F)cccc2F)n2nc(C)c(C(=O)NCC(C)(N)CC(C)C)c2c1` (racemic) [Example 92, rac-N-(2-Amino-2,4-dimethylpentyl)-7-[(2,6-difluorobenzyl)oxy]-2,5-dimethylpyrazolo[1,5-a]pyridine-3-carboxamide] reads 0.3 µM; that for `Cc1cc(OCc2c(F)ccc(F)c2F)n2nc(C)c(C(=O)NC3CC4CCCC(C3)N4C)c2c1` (centres unmarked) [Example 29, 2,5-Dimethyl-N-(9-methyl-9-azabicyclo[3.3.1]non-3-yl)-7-[(2,3,6-trifluorobenzyl)oxy]pyrazolo[1,5-a]pyridine-3-carboxamide], 0.3 µM; that for `Cc1cc(OCc2c(F)cccc2F)n2nc(C)c(C(=O)N[C@H]3CCNC3=O)c2c1` [Example 149, 7-[(2,6-Difluorobenzyl)oxy]-2,5-dimethyl-N-[(3S)-2-oxopyrrolidin-3-yl]pyrazolo[1,5-a]pyridine-3-carboxamide], 1.0 µM.
